We go through 1 compound from patent US6589580B1, “Method and apparatus for application of surface treatment to food products” (Kraft Foods Holdings, Inc., priority 1999, dated 2003).

Each structure is given as a SMILES string.

The subject of this experiment is mold growth on cheese chunks. The experiment can be described thus: Mold growth on refrigerated cheese chunks exposed to ambient air after surface treatment. The procedure:
In one particular embodiment, the material applied comprises a suspension of natamycin in an aqueous saline solution. […] In a preferred embodiment of the invention, the process applies an average surface concentration of about 1.0 to 1.1 μg/cm^2 to ensure that an adequate concentration is applied over substantially the entire exterior surface. Application of natamycian at these average surface concentrations with the apparatus of the invention ensures that substantially all of the cheese chunk surface area has a surface concentration of at least about 0.5 μg/cm^2.
The efficacy of an antimycotic agent may be measured in terms of the number of days during which mold growth is retarded in treated samples, relative to untreated control samples. Generally, if mold growth is retarded by 45 days or more, the antimycotic may be considered effective. The absolute length of time during which mold growth is delayed depends on the mold load in the ambient air, in addition to effects of antimycotic agents.

For the compound `C[C@@H]1C/C=C/C=C/C=C/C=C/[C@H](O[C@@H]2O[C@H](C)[C@@H](O)[C@H](N)[C@@H]2O)C[C@@H]2O[C@](O)(C[C@@H](O)C[C@H]3O[C@@H]3/C=C/C(=O)O1)C[C@H](O)[C@H]2C(=O)O` [natamycin], the “number of days by which mold growth is retarded (relative to untreated control samples)” value (preferred embodiment (average surface concentration about 1.0 to 1.1 μg/cm^2), refrigerated at 35° F. to 45° F., exposed to ambient air) is recorded as “over 45 days”. In addition, where the note is “preferred embodiment, in some cases, refrigerated at 35° F. to 45° F., exposed to ambient air”, the “time cheese chunks remained mold-free” value is “over 200 days”. Further, the “surface concentration level found effective in preventing mold growth” value (refrigerated cheese chunks exposed to ambient air for extended periods, natamycin suspension in aqueous saline solution applied by spray) is “about 0.5 μg/cm^2”.
